Data: patent publication US12612403B2, “Nitrogen-containing heterocyclic derivative inhibitor, and preparation method therefor and use thereof” (SHANGHAI HANSOH BIOMEDICAL CO., LTD., priority 2024, dated 2026)

Assays:
[1] = Pharmacokinetic determination in mice (PO 5 mg/kg, IV 1 mg/kg); type: in vivo, C57BL/6J mice; details: male, C57BL/6J, mouse, plasma, C57 mice, PO administration, 5 mpk; for AUC(0-inf): read-out: Area under the curve AUC0-∞; for half-life: read-out: Half-life t1/2 (converted); for MRT: read-out: Mean residence time MRT; for Cmax: read-out: Plasma concentration Cmax; for Tmax: read-out: Time to peak tmax
In short: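 Fasted male C57BL/6J mice (n=3 per route) dosed PO 5 mg/kg in 10% Solutol HS15 or IV 1 mg/kg in 5% DMSO/10% Solutol HS15/85% PBS. Orbital blood sampled 0.083 (IV) to 24 h; plasma measured by LC-MS/MS, parameters by WinNonlin.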

[2] = tested on: hyperlipidemia animal model of B6-hPCSK9 transgenic mice; assay: In vivo pharmacodynamic study in hyperlipidemia model of B6-hPCSK9 transgenic mice (LDL-C, TC, plasma PCSK9); parameters: species or system B6-hPCSK9 transgenic C57 mice; details: PO administration, 10 mpk, Day 14, B6-hPCSK9 transgenic mice on high-fat feed, normalized to vehicle group
Protocol: 1. Experimental objective: The compounds of the present disclosure were evaluated for in vivo pharmacodynamics in a hyperlipidemia animal model of B6-hPCSK9 transgenic mice.
2.1 Animals: B6-hPCSK9 transgenic C57 mice, 6-8 weeks old, male, purchased from Jiangsu GemPharmatech Co., Ltd.
2.2 Animal model: After delivery to a barrier system, the animals were given one week for acclimatization and began to feed on the high-fat feed. The body weight and feed weight were weighed once a week, and the body weight and food intake thereof were recorded.
2.3 Grouping and administration • a. The animals were grouped by a random grouping method. • c. According to the grouping results, administration with the test drug was started (mode of administration: oral administration; administration volume: 10 mL/kg; frequency of administration: once/day or single administration; administration cycle: 21 days; vehicle: 10% Solutol HS 15/90% Saline). Test drug: Compounds of the present disclosure, made in house. • d. After the test drug was administered, the body weight and feed weight were weighed twice a week and blood was taken once a week. • e. The data was processed with software such as Excel. […] PCSK9 in plasma was detected by ELISA.

SMILES | AUC(0-inf) [1] [µg·h/mL] | half-life [1] [h] | MRT [1] [h] | Cmax [1] [µg/mL] | Tmax [1] [h] | LDL-C change vs vehicle (%), Day 14 [2] [%]
O=c1nc(O)ccn1-c1ccc(N[C@H]2CC[C@H](Nc3nc4cc(C(F)(F)F)ccn4n3)C2)nc1 [Example 78, 4-hydroxy-1-(6-(((1S,3S)-3-((7-(trifluoromethyl)-[1,2,4]triazolo[1,5-a]pyridin-2-yl)amino)cyclopentyl)amino)pyridin-3-yl)pyrimidin-2(1H)-one] | 14 | 3.6 | 1.7 | 7.86 | 0.25 | −37.98
O=C1c2ncccc2CN1c1cnc(N[C@H]2CC[C@H](Nc3nc4cc(OC(F)F)ccn4n3)C2)c(F)c1 [Example 151] | 11.3 | 1.4 | 2.3 | 3.46 | 0.5 | −31.09
O=c1nc(O)ccn1-c1cnc(N[C@H]2CC[C@H](Nc3nc4cc(C(F)(F)F)ccn4n3)C2)c(F)c1 [Example 183] | 26.7 | 3 | 3.5 | 6.13 | 0.7 | −48.90
